The results in this text go back to US20240300886A1, “ARYLCYCLOHEXYLAMINE DERIVATIVES AND THEIR USE IN THE TREATMENT OF PSYCHIATRIC DISORDERS” (GILGAMESH PHARMACEUTICALS, INC., priority 2021, published 2024).

Data set [1] deals with MK-801 binding site of the N-methyl-D-aspartate receptor (NMDAR). Description: NMDA receptor radioligand binding with [3H]MK-801. Also noted: species or system Wistar rat. Conditions: [3H]MK-801 displacement, Wistar rat brain (minus cerebellum); read-out: NMDAR Ki (95% CI). On the procedure:
The binding affinities of disclosed compounds at the MK-801 binding site of the N-methyl-D-aspartate receptor (NMDAR) were determined in radioligand binding experiments (Table 13).
Radioligand Binding. Affinity of the test compounds for NMDAR was determined in radioligand binding experiments with [^3H]MK-801 by Eurofins Panlabs, Inc., using methods adapted from the literature (Javitt el al. 1987; Reynolds et al. 1989) and under the conditions described in Table 14.

The nature of data set [2]: Metabolic stability in human liver microsomes (HLM). The format is in vitro ADME. Conditions: 0.50 mg protein/mL, NADPH. The protocol: (§1) HLM Stability. Pooled HLM from adult male and female donors (Corning 452117) were used. Microsomal incubations were carried out in multi-well plates. Liver microsomal incubation medium consisted of PBS (100 mM, pH 7.4), MgCl2 (1 mM), and NADPH (1 nmM), with 0.50 mg of liver microsomal protein per mL. Control incubations were performed by replacing the NADPH-cofactor system with PBS. Test compounds (1 μM, final solvent concentration 1.0%) were incubated with microsomes at 37° C. with constant shaking, Six time points over 60 minutes were analyzed, with 60 μL aliquots of the reaction mixture being drawn at each time point. The reaction aliquots were stopped by adding 180 μL of cold (4° C.) acetonitrile containing 200 ng/mL tolbutamide and 200 ng/mL labetalol as internal standards (IS), followed by shaking for 10 minutes, and then protein sedimentation by centrifugation at 4,000 rpm for 20 minutes at 4° C. Supernatant samples (80 μL) were diluted with water (240 μL) and analyzed for parent compound remaining using a fit-for-purpose liquid chromatography-tandem mass spectrometry (LC-MS/MS) method.
(§2) Data Analysis. The elimination constant (kel), half-life (t1/2) and intrinsic clearance (Clint) were determined in a plot of […] versus time, using linear regression analysis.
Background: Liver microsomes are vesicles of endoplasmic reticulum, rich in cytochrome P450 enzymes.

In data set [3] the target is serotonin transporter (SERT) (Homo sapiens (Human), UniProt P31645). Description: SERT fluorescent substrate uptake inhibition in transfected cells. Type of data set: cell-based. Conditions: stably transfected cells expressing SERT. On the procedure:
The ability of disclosed compounds to inhibit uptake of monoamines by the serotonin transporter (SERT) was measured using a fluorescent substrate uptake assay in transfected cells (Table 15). […] Considering that inhibitors of SERT are well known to have antidepressant and anxiolytic effects and are among the most commonly prescribed drugs for mood disorders (e.g. fluoxetine, sertraline, etc.), blockade of SERT by certain compounds of the present disclosure is expected to synergize with their NMDAR inhibition to increase therapeutic activity for treating depression and related disorders. […] Further, the ability to tune the ratio between SERT and NMDAR is useful to obtain the optimal therapeutic profile depending on the intended clinical indication.
Uptake Inhibition. The ability of test compounds to block monoamine uptake by SERT was determined using the Neurotransmitter Transporter Uptake Assay Kit manufactured by Molecular Devices (Cat #R8173). Briefly, stably transfected cells expressing SERT were grown and plated into 384-well plates at a concentration of 20,000 cells per well. Plates were then incubated for 16-20 h at 37° C. and 5% CO2. The medium was then aspirated and replaced with 25 μL of assay buffer (20 mM HEPES in HBSS, containing 0.1% BSA) containing the test compounds at the appropriate concentrations. Plates were then centrifuged at 300 rpm for 15 s and then incubated at 37° C. for 30 minutes. At this time, 25 μL of the proprietary fluorescent dye solution was added, the plates were incubated at 37° C. for 60 minutes, and then fluorescence was quantified on a plate reader (excitation wavelength=440 nm, emission wavelength=520 nm). The proprietary dye solution contains a mixture of 1) a fluorescent dye that mimics the endogenous substrate of SERT and is thereby actively transported to the intracellular compartment in the absence of an inhibitor and 2) a masking dye that inhibits the fluorescence of dye 1 in the extracellular compartment. Therefore, the overall fluorescence of the system increases as the fluorescent dye is transported into the cells.

Data set [4] is described as follows: Metabolic stability in cynomolgus monkey liver microsomes (CLM). The format is in vitro ADME, cynomolgus monkeys. Conditions: male, cynomolgus monkey, pooled cynomolgus monkey liver microsomes, pH 7.4, 1 μM compound, 0.50 mg protein/mL, NADPH. On the procedure:
as §1, with “CLM” for “HLM”, “from” for “from adult”, “cynomolgus monkeys” for “and female donors”, “452413)” for “452117)”, “mM),” for “nmM),”, “shaking.” for “shaking,”
as §2

A short description of data set [5]: Metabolic stability in rat liver microsomes (RLM). The format is in vitro ADME, Sprague Dawley rats. Conditions: male, Sprague Dawley, rat, pooled rat liver microsomes, pH 7.4, 1 μM compound, 0.50 mg protein/mL, NADPH. The protocol:
as §1, with “RLM” for “HLM”, “from” for “from adult”, “Sprague Dawley rats (XenoTech R1000)” for “and female donors (Corning 452117)”, “mM),” for “nmM),”, “shaking.” for “shaking,”
as §2

A short description of data set [6]: Metabolic stability in mouse liver microsomes (MLM). The format is in vitro ADME, CD-1 mice. Conditions: male, CD-1, mouse, pooled mouse liver microsomes, pH 7.4, 1 μM compound, 0.50 mg protein/mL, NADPH. The protocol: as §1, with “MLM” for “HLM”, “from” for “from adult”, “CD-1 mice (XenoTech M1000)” for “and female donors (Corning 452117)”, “mM),” for “nmM),”, “shaking.” for “shaking,”
Data Analysis. The elimination constant (kel), half-life (t1/2) and intrinsic clearance (Clint) were determined in a plot of ln(AUC) versus […], using linear regression analysis.

Data set [7] can be described thus: Metabolic stability in dog liver microsomes (DLM). The format is in vitro ADME, beagle dogs. To be noted: male, beagle, dog, pooled dog liver microsomes, pH 7.4, 1 μM compound, 0.50 mg protein/mL, NADPH. The protocol: as §1, with “DLM” for “HLM”, “from” for “from adult”, “beagle dogs (XenoTech D1000)” for “and female donors (Corning 452117)”, “mM),” for “nmM),”, “shaking.” for “shaking,”, “([…]),” for “(IS),”
as §2

The term Ki denotes a measure of affinity in units of concentration, obtained from inhibition or displacement. As to `CN[C@@]1(c2ccccc2Cl)CCCCC1=O` [(R)-ketamine, reference compound], the Ki in data set [1] amounted to 2.2 µM.
With `CN[C@]1(c2ccccc2Cl)CCCCC1=O` [(S)-ketamine, reference compound], the Ki in data set [1] came to 0.7 µM.
As usually defined, the half-life is the time needed for the level to fall by half in the phase considered. One may read the inhibition as the share of the control response that was lost under treatment. One may read the microsomal CLint as the rate of metabolic loss divided by the concentration. In turn, `N[C@@]1(c2cccc(F)c2)CCCCC1=O` [Compound 3R, (R)-2-amino-2-(3-fluorophenyl)cyclohexan-1-one] came in with a Clint in data set [2] (1 μM compound) of less than 9.6 μL/min/m. The half-life at 1 μM in data set [2] (both sexes, human, pooled human liver microsomes, pH 7.4, 1 μM compound) is greater than 2.42 h; in data set [4], 1.85 h; in data set [5], greater than 2.42 h; in data set [6], 2 h; in data set [7], 0.667 h. Further, the inhibition at 10 µM in data set [3] was determined as 1.75%. The microsomal CLint at 1 μM in data set [4] was 12.5 µL/min/mg; in data set [5] it was less than 9.6 µL/min/mg; in data set [6], 11.6 µL/min/mg; in data set [7], 34.6 µL/min/mg.
